For 14 compounds, IC50 and inhibition results are on record in patent US20230242534A9, “INHIBITORS OF CYCLIN-DEPENDENT KINASE 7 AND USES THEREOF” (Dana-Farber Cancer Institute, Inc., priority 2019, published 2023).

One experiment deals with T1, CDK7: cyclin H and MNAT1 (Homo sapiens, UniProt P50613).
T1 construct: purchased Invitrogen
As to the kind of experiment: Invitrogen CDK7 assay (kinase inhibition). Particulars: co-factors cyclin H and MNAT1, read-out: IC50 against CDK7. It counts as biochemical. The method, then: Compounds were assayed using Invitrogen CDK7 assay against a variety of kinases. Exemplary results are presented as IC50 values for compounds of the disclosure in Table 1 and for comparator compounds in Table 2. In Tables 1 and 2, “A” represents an IC50 value of less than 100 nM, “B” represents an IC50 value of greater than or equal to 100 nM and less than 1 μM, and “C” represents an IC50 value of greater than or equal to 1 μM. The co-factors used for each kinase in the assays were as follows: CDK7: cyclin H and MNAT1; CDK2: cyclin A; CDK9: cyclin T1.

Experiment [1] concerns the target T2, SET Human Serotonin Transporter (Homo sapiens, UniProt P31645).
T2 construct: Cerep (Eurofins Discovery Services) 439
As to the kind of experiment: 5-HT inhibition assay: Cerep SET Human Serotonin Transporter Binding (Antagonist Radioligand) Assay. Particulars: test compound 10 μM, ligand [3H]imipramine 2 nM, 60 min at RT. Here is the method: The 5-HT inhibition assay was performed according to the Cerep SET Human Serotonin Transporter Binding (Antagonist Radioligand) Assay, such as the assay described in www.eurofinsdiscoveryservices.com/catalogmanagement/viewitem//439, accessed Jul. 22, 2019. In some experiments, the assay information is as shown below:
Ligand concentration: 2 nM; Non specific: imipramine (10 μM);
Incubation: 60 min at RT;
Control inhibitor: imipramine; and Test compound concentration: 10 μM. Exemplary results are presented as 5-HT % inhibition at 10 μM of compound for compounds of the disclosure in Table 1 and for comparator compounds in Table 2.

Setting [2] is: Table 1, compounds of the disclosure.

Like-named read-outs stand apart in the source and are kept apart here.

T2 sequence (P31645 whole entry): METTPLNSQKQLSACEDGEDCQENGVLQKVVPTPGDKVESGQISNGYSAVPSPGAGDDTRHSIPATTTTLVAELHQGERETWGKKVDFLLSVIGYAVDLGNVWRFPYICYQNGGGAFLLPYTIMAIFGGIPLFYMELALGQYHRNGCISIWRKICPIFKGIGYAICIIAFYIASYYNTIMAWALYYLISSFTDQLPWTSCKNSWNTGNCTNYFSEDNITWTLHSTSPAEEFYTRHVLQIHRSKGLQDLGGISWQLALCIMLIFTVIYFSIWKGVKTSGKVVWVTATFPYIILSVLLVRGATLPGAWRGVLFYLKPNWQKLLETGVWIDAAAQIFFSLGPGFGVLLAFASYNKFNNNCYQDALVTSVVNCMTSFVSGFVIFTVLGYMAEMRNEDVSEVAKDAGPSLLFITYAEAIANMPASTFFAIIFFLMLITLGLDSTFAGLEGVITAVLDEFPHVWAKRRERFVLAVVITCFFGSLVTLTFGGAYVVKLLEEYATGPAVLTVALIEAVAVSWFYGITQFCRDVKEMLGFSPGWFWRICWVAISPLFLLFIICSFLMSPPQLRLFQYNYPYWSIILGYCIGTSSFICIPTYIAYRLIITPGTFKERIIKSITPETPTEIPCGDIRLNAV
T1 sequence (P50613 whole entry): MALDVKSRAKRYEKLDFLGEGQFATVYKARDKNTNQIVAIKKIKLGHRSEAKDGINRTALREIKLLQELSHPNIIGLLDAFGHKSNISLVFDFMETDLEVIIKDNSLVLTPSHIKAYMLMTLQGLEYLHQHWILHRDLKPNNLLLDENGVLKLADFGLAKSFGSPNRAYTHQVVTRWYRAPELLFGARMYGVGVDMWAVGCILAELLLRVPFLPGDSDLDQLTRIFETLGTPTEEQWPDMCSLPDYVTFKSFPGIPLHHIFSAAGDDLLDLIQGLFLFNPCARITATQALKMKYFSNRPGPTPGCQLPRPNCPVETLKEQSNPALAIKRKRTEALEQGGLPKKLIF
T1 sequence (P51946 whole entry partner): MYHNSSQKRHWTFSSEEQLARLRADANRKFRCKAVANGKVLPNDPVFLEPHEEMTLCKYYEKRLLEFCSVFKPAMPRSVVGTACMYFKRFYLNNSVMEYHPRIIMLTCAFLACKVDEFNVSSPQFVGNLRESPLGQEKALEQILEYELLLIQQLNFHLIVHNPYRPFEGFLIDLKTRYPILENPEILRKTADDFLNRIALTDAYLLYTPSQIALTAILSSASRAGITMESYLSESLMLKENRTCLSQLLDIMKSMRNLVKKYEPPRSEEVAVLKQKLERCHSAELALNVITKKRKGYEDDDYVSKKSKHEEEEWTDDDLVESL
T1 sequence (P51948 whole entry partner): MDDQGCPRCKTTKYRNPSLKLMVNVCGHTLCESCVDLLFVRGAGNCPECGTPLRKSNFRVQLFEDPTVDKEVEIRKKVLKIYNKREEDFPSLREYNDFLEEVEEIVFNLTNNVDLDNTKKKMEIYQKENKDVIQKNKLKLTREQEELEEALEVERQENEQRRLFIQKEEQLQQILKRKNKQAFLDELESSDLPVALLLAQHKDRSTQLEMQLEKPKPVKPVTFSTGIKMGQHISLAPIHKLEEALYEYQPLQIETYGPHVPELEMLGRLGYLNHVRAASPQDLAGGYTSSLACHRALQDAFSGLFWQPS

Regarding `C=CC(=O)Nc1cccc(C(=O)Nc2ccc(Nc3n[nH]c4c3CN(C(=O)N[C@H](CN(C)C)c3ccccc3)C4(C)C)cc2)c1` [Compound C-1], the IC50 at CDK7: cyclin H and MNAT1 (Table 2, comparator compounds) was under 0.1 µM. For the same compound, 10 µM produced 98.3% inhibition in experiment [1] (Table 2, comparator compounds).
For `C=CC(=O)Nc1ccc(C(=O)Nc2n[nH]c3c2CN(C(=O)N[C@H](CN(C)C)c2ccccc2)C32CC2)cc1` [Compound C-2], in that order: under 0.1 µM and 95.3%.
`C=CC(=O)Nc1cccc(Nc2n[nH]c3c2CN(C(=O)N[C@H](CN(C)C)c2ccccc2)C3(C)C)c1` [Compound C-3]: at CDK7: cyclin H and MNAT1 (Table 2, comparator compounds), the IC50 is under 0.1 µM. Further, the inhibition at 10 µM in experiment [1] (Table 2, comparator compounds) came to 98.2%.
As to `C=CC(=O)Nc1ccc(C(=O)N2CCC(Nc3n[nH]c4c3CN(C(=O)N[C@H](CN(C)C)c3ccccc3)C4(C)C)CC2)cc1` [Compound C-4], the IC50 on CDK7: cyclin H and MNAT1 (Table 2, comparator compounds) was under 0.1 µM. The inhibition at 10 µM in experiment [1] (Table 2, comparator compounds) was determined as 96.4%.
For `C=CC(=O)N1CCC[C@H](C(=O)Nc2n[nH]c3c2CN(C(=O)N[C@H](CN(C)C)c2ccccc2)C3(C)C)C1` [Compound C-5], in that order: under 0.1 µM and 94.3%.
For `C=CC(=O)Nc1ccc(C(=O)Nc2cccc(C(=O)Nc3n[nH]c4c3CN(C(=O)N[C@H](CN(C)C)c3ccccc3)C4(C)C)c2)cc1` [Compound C-6], in that order: under 0.1 µM and 99.6%.
As for `C=CC(=O)Nc1ccc(C(=O)Nc2n[nH]c3c2CN(C(=O)N[C@H](CN(C)C)c2ccccc2)[C@@H]3C(C)C)cc1` [Compound C-7], the IC50 on CDK7: cyclin H and MNAT1 (Table 2, comparator compounds) was under 0.1 µM. The same compound displayed an inhibition at 10 µM in experiment [1] (Table 2, comparator compounds) of 74.5%.
On to `C=CC(=O)Nc1ccc(C(=O)Nc2cccc(Nc3n[nH]c4c3CN(C(=O)N[C@H](CN(C)C)c3ccccc3)C4(C)C)c2)cc1` [Compound C-8], for which the IC50 at CDK7: cyclin H and MNAT1 (Table 2, comparator compounds) is under 0.1 µM. In experiment [1] (Table 2, comparator compounds), this compound yielded an inhibition at 10 µM of 98%.
For `C=CC(=O)Nc1ccc(C(=O)Nc2n[nH]c3c2CN(C(=O)N[C@H](CN(C)C)c2ccccc2)C3(C)C)nc1` [Compound C-10], in that order: under 0.1 µM and 98.3%.
On to `C=CC(=O)Nc1ccc(C(=O)Nc2nn(C)c3c2CN(C(=O)N[C@H](CN(C)C)c2ccccc2)C3(C)C)cc1` [Compound I-1, (S)-3-(4-acrylamidobenzamido)-N-(2-(dimethylamino)-1-phenylethyl)-1,6,6-trimethyl-4,6-dihydropyrrolo[3,4-c]pyrazole-5(1H)-carboxamide], for which, at CDK7: cyclin H and MNAT1 (setting [2]), the IC50 is under 0.1 µM. Moreover, in experiment [1] (Table 1), the inhibition at 10 µM was 26.8%.
For `C=CC(=O)Nc1ccc(C(=O)Nc2nn(C(F)F)c3c2CN(C(=O)N[C@H](CN(C)C)c2ccccc2)C3(C)C)cc1` [Compound I-5, (S)-3-(4-acrylamidobenzamido)-1-(difluoromethyl)-N-(2-(dimethylamino)-1-phenylethyl)-6,6-dimethyl-4,6-dihydropyrrolo[3,4-c]pyrazole-5(1H)-carboxamide], in that order: under 0.1 µM and 81.4%.
For `C=CC(=O)Nc1ccc(C(=O)Nc2nn(C)c3c2CN(C(=O)N[C@H](CN(C)C)c2ccccc2)C3(C)C)nc1` [Compound I-8, (S)-3-(5-acrylamidopicolinamido)-N-(2-(dimethylamino)-1-phenylethyl)-1,6,6-trimethyl-4,6-dihydropyrrolo[3,4-c]pyrazole-5(1H)-carboxamide], in that order: 0.1 to 1 µM and 50.6%.
Regarding `C=CC(=O)Nc1ccc(C(=O)Nc2nn(C(F)F)c3c2CN(C(=O)N[C@H](CN(C)C)c2ccccc2)C3(C)C)nc1` [Compound I-33, (S)-3-(5-acrylamidopicolinamido)-1-(difluoromethyl)-N-(2-(dimethylamino)-1-phenylethyl)-6,6-dimethyl-4,6-dihydropyrrolo[3,4-c]pyrazole-5(1H)-carboxamide], the IC50 at CDK7: cyclin H and MNAT1 (setting [2]) was under 0.1 µM. The compound further gave an inhibition at 10 µM in experiment [1] (Table 1) of 88.8%.
As to `C=CC(=O)Nc1ccc(C(=O)Nc2n[nH]c3c2CN(C(=O)N[C@H](CN(C)C)c2ccccc2)C3(C)C)cc1C(F)(F)F` [II-2], the IC50 at CDK7: cyclin H and MNAT1 (Table 2, comparator compounds) is under 0.1 µM. Besides, in experiment [1] (Table 2, comparator compounds), testing at 10 µM gave an inhibition of 98.1%.

In general, IC50 refers to the point on the concentration scale where inhibition reaches its midpoint. Broadly, the inhibition is the relative decrease from the control value, in per cent. A lower inhibition goes with a weak effect.
